Molecules are shown by their SMILES.

The values below come from article PMC6222706, “Evaluation of the Antioxidant and Neuroprotectant Activities of New Asymmetrical 1,3-Diketones” (Molecules : A Journal of Synthetic Chemistry and Natural …, 2018).

Assay [1] relates to SH-SY5Y cells. Conditions: read-out: H2O2 lethal dose (EC50; LD50), 24 h incubation, cell viability 50% of the control. The method, then: To test our work hypothesis, neuroprotection studies were carried out with β-diketones 6b and 7b in the SH-SY5Y cell line under oxidative stress conditions.
In assay [2] the test system is SH-SY5Y cells. Briefly: Mitochondrial membrane potential by flow cytometry (JC-1) in SH-SY5Y cells under H2O2. The class given is cell-based, human. Conditions: 400 µM H2O2, no compound. The method, then: To confirm this MMP recovery results, flow cytometry experiments were carried out with compound 7b and SH-SY5Y cells. Cells were treated with 7b for 24 h and then were exposed to 400 µM H2O2 for 4 h. JC-1 was used as fluorescence indicator of MMP state. In flow cytometry studies of MMP, JC-1 is excited at 488 nm wavelength. Both JC-1 aggregates and monomers show green fluorescence (peak emission at 527 nm) measured in the FL1 channel. […] Thus, healthy non-apoptotic cells are detected in both FL1 and FL2 channels, while cells with disrupted mitochondrial function show fluorescence in FL1 channel but reduced FL2 intensity. […] From these flow cytometry experiments, we can confirm that after compound 7b treatment there is a significant MMP recovery in SH-SY5Y cells under oxidative stress pressure.
For MMP flow cytometry studies, 10^5 SH-SY5Y cells were seeded in 6 well plates. After 24 h, cells were treated with test compound and incubated for other 24 h. After the treatment period, cells were exposed to H2O2 for 4 h. Then, cells were washed twice with Hanks buffer and stained with 5 µM JC-1 in culture media in dark, in a CO2 incubator at 37 °C for 20 min. After the staining period, cells were washed three times with Hanks buffer, collected and resuspended in 500 µL culture media. Data were obtained and analyzed using an Accuri C6 flow cytometer (BD Biosciences, Ann Arbour, MI, USA). […]
(In general: In flow cytometry, cells or beads pass a laser one at a time.)

In assay [3] the test system is SH-SY5Y cells. Briefly: Mitochondrial membrane potential (JC-1, microplate reader) in SH-SY5Y cells under H2O2. Format: cell-based, human. Conditions: SH-SY5Y exposed to 200 µM H2O2 for 24 h, no compound. Here is the method: To know whether β-diketones 6b and 7b will protect the mitochondrial membrane from depolarization under oxidative stress conditions, MMP experiments were carried out with the cationic dye JC-1 (5,5′,6,6′-tetrachloro-1,1′,3,3′-tetraethylbenzimi-dazolylcarbocyanine iodide). JC-1 enters selectively into mitochondria and reversibly change color from red to green as the membrane potential decrease. In healthy cells, JC-1 forms red fluorescent J-aggregates while in apoptotic cells with low MMP, JC-1 remains as monomers with green fluorescence. The ratio of J-aggregates to J-monomers is an indication of healthy non-apoptotic cells.
The fluorescent dye 5,5′,6,6′-tetrachloro-1,1′,3,3′-tetraethylbenzimidazolylcarbocyanine iodide (JC-1) was used for measuring MMP [111]. A decrease in fluorescence intensity represents mitochondrial membrane depolarization. For fluorescence ratio detection under oxidative stress conditions, 96 well plates were seeded with 3 × 10^3 SH-SY5Y cells and after 24 h incubation they were treated with test compound and left out for 24 h. Then, cells were exposed to different H2O2 concentrations for 24 h. After the incubation period, cells were washed twice with Hanks buffer and then stained with 5 µM JC-1 in culture media in dark, in a CO2 incubator at 37 °C for 20 min. At the end of the dye incubation period, cells were washed three times with Hanks buffer and 200 µL of fresh buffer was added. Cells were analyzed with a Varioskan microplate reader. J-aggregates red fluorescence intensity was measured at 535 nm excitation and 595 nm emission wavelength, while excitation at 485 nm and emission 535 nm wavelength was used for J-monomers green fluorescence. Results were expressed as the ratio of fluorescence intensity of J-aggregates to J-monomers. […] JC-1 aggregates show red fluorescence (peak emission at 590 nm) measured in the FL2 channel. Thus, healthy non-apoptotic cells are detected in both FL1 and FL2 channels, while cells with disrupted mitochondrial function show fluorescence in FL1 channel but reduced FL2 intensity.

Usually EC50 stands for the concentration at which the effect is half-maximal. As for `OO` [Compound H2O2, hydrogen peroxide, reference compound], in the assay on SH-SY5Y cells [1], the EC50 came out at 200 µM. Further, the “Increase in the FLA-1/FLA-2 ratio” value with SH-SY5Y cells [2] stood at 2 fold. Besides, the MMP reduction result with SH-SY5Y cells [3] is “about 62%”.
